What was measured:
[1] = target: T1, human 5-HT1A serotonergic receptor (Homo sapiens, UniProt P08908); assay: Radioreceptor binding, recombinant human 5-HT1A receptors ([3H]8-OH-DPAT, HeLa membranes); conditions: for Ki: recombinant human receptor, [3H]8-OH-DPAT, Ki from IC50 by Cheng & Prusoff, read-out: Binding affinity for the 5-HT1A receptor, Ki
T1 construct: expressed in transfected cells; host or cells: HeLa
T1 sequence (P08908 1-422): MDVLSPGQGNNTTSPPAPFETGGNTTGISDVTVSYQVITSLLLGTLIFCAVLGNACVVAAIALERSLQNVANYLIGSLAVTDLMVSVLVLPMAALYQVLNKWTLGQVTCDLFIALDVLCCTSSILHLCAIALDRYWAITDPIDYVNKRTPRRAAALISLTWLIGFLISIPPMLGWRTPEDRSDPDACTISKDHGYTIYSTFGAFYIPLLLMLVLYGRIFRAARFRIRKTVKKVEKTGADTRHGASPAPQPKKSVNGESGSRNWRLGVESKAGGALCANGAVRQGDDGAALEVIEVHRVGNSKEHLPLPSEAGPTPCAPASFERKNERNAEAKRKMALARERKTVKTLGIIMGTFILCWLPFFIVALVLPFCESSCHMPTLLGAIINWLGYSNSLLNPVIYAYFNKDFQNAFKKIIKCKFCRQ
Procedure, shortened: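 Membranes from HeLa cells stably transfected with human 5-HT1A clone G-21 incubated 30 min at 30° C with 0.2-1 nM [3H]8-OH-DPAT in 50 mM Tris HCl pH 7.4, 2.5 mM MgCl2, 10 μM pargiline; nonspecific binding with 10 μM 5-HT. Filtration assay; IC50 from curve fitting converted to Ki by Cheng-Prusoff.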

[2] = system: rhythmic bladder voiding contractions; assay: Volume-induced rhythmic bladder voiding contractions in anaesthetized rats; assay type: in vivo, rat; conditions: Rattus norvegicus, intravenous; for ED (10 min disappearance of contractions): extrapolated dose inducing 10 min of disappearance of the contractions, anaesthetized rats, read-out: ED10 min; for ED50: extrapolated dose inducing a reduction of the number of contractions >30% in 50% of treated rats, read-out: ED50 (frequency)
Method: Female Sprague Dawley rats weighing 225-275 g (Crl: CDo BR, Charles River Italia) were used. The animals were housed with free access to food and water and were maintained on a forced 12 h alternating light-dark cycle at 22-24° C. for at least one week, except during the experiment. The activity on the rhythmic bladder voiding contractions was evaluated according to the method of Dray (J. Pharmacol. Methods, 13:157, 1985), with some modifications as in Guarneri (Pharmacol. Res., 27:173, 1993). Briefly, rats were anesthetized by subcutaneous injection of 1.25 g/kg (5 ml/kg) urethane, after which the urinary bladder was catheterized via the urethra using PE 50 polyethylene tubing filled with physiological saline. The catheter was tied in place with a ligature around the external urethral orifice and was connected with conventional pressure transducers (Statham P23 ID/P23 XL). […] The bladder was then filled via the recording catheter by incremental volumes of warm (37° C.) saline until reflex bladder voiding contractions occurred (usually 0.8-1.5 ml). For intravenous (i.v.) injection of bioactive compounds, PE 50 polyethylene tubing filled with physiological saline was inserted into the jugular vein. From the cystometrogram, the number of contractions recorded 15 min before (basal values) and after treatment, as well as the mean amplitude of these contractions (mean height of the peaks in mmHg) was evaluated.
Since most compounds produced an effect that was relatively rapid in onset and led to a complete cessation of bladder contractions, bioactivity was conveniently estimated by measuring the duration of bladder quiescence (i.e., the duration of time during which no contractions occurred). The number of animals tested showing a reduction in the number of contractions >30% of that observed in the basal period was also recorded.
Also computed in this manner were extrapolated doses which induced a reduction of the number of contractions of greater than 30% in 50% of treated rats (ED50, frequency) by the method of Bliss (Bliss C. I., Quart. J. Pharm. Pharmacol. 11, 192-216, 1938). After the suppressive effects of drug injection wore off, the height of the contractile peaks was compared with the height of the peaks previously recorded after the control intravenous administration of vehicle. The potency of the tested compounds (ED50 value: the extrapolated doses inducing a 30% reduction of amplitude of the contractions in 50% of treated rats) was evaluated on a quantal basis by the method of Bliss (Bliss C. I., Quart. J. Pharm. Pharmacol. 11, 192-216, 1938).

Row | SMILES | affinity for 5-HT1A receptors (in words) [1] | Ki [1] [nM] | ED (10 min disappearance of contractions) [2] [mg/kg] | ED50 [2] [mg/kg]
1 | COc1ccccc1N1CCN(CCN(C(=O)C2CCCCC2)c2ccccc2)CC1 [Compound A, 1-(N-phenyl-N-cyclohexylcarbonyl-2-aminoethyl)-4-(2-methoxyphenyl)piperazine, reference compound] | very high affinity | – | 0.65 | 0.033
2 | COc1ccccc1N1CCN(CCN(C(=O)C2CCCCC2)c2ccccc2[N+](=O)[O-])CC1 [Example 2, 1-[N-(2-nitrophenyl)-N-cyclohexylcarbonyl-2-aminoethyl]-4-(2-methoxyphenyl) piperazine] | very high affinity | – | 0.06 | 0.009

Second part, led by results:

Row | affinity for 5-HT1A receptors (in words) [1] | Ki [1] [nM] | SMILES | ED (10 min disappearance of contractions) [2] [mg/kg] | ED50 [2] [mg/kg]
3 | – | 0.5 | O=C(C1CCCCC1)N(CCN1CCN(c2cccc3[nH]ccc23)CC1)c1ccccc1[N+](=O)[O-] [Example 13, 1-[N-(2-nitrophenyl)-N-cyclohexylcarbonyl-2-aminoethyl]-4-(4-indolyl)piperazine] | 0.266 | 0.029
4 | – | 0.6 | COC(=O)c1ccccc1N(CCN1CCN(c2ccccc2OC)CC1)C(=O)C1CCCCC1 [Example 18, 1-[N-(2-methoxycarbonylphenyl)-N-cyclohexylcarbonyl-2-aminoethyl]-4-(2-methoxyphenyl)piperazine] | 0.101 | 0.017
5 | – | 0.14 | COc1ccccc1N1CCN(CCN(C(=O)C2CCCCC2)c2ccccc2OC)CC1 [Example 23, 1-[N-(2-methoxyphenyl)-N-cyclohexylcarbonyl-2-aminoethyl]-4-(2-methoxyphenyl)piperazine] | 0.093 | 0.018

Source: patent US6399614B1, “1-(N-phenylaminoalkyl)piperazine derivatives substituted at position 2 of the phenyl ring” (Recordati S.A. Chemical and Pharmaceutical Company, priority 1997, dated 2002)
